In brackets after ≈: the same amount, converted by molar mass.

Assay in all cases: ≥ marks a high value that may be exact or a test limit, other limits are often not marked, values filed in µg/mL are converted to µM
For assay [1], the system named is Enterococcus faecalis NCTC 12697.
Assay [2] relates to Pseudomonas aeruginosa ATCC 27853.
Assay [3] deals with Candida albicans NCYC 1467.
For assay [4], the system named is Escherichia coli NCTC 10418.
Assay [5] deals with Staphylococcus aureus NCTC 12493.
Assay [6] concerns Staphylococcus aureus NCTC 10788.
In assay [7] the test system is Staphylococcus aureus USA 100.
Assay [8] relates to Escherichia coli DH5alpha.
Assay [9] has as its system Staphylococcus epidermidis ATCC 12228.
Assay [10] relates to Staphylococcus aureus ATCC 6538.
The subject of assay [11] is Micrococcus luteus ATCC 4698.
Assay [12] has as its system Streptococcus mutans UA159.
Assay [13] has as its system Candida albicans ATCC 90028.
Assay [14] concerns Staphylococcus aureus USA 300.
Assay [15] relates to Pseudomonas aeruginosa ATCC 9027.
Assay [16] deals with Staphylococcus aureus ATCC BAA-1556.
In assay [17] the test system is Staphylococcus aureus ATCC 25923.
The subject of assay [18] is Bacillus cereus ATCC 11778.
The subject of assay [19] is Escherichia coli ATCC 35218.
The test system of assay [20] is Staphylococcus aureus.
Assay [21] concerns Escherichia coli.
Assay [22] concerns Bacillus anthracis.
Assay [23] deals with Bacillus cereus.
In assay [24] the test system is Streptococcus pyogenes ATCC 19615.
The test system of assay [25] is Enterococcus faecalis ATCC 29212.
The test system of assay [26] is Klebsiella pneumoniae ATCC 13883.
In assay [27] the test system is Salmonella enterica subsp. enterica serovar Typhimurium ATCC 14028.
For assay [28], the system named is Bacillus subtilis.
In assay [29] the test system is Staphylococcus aureus ATCC 29213.
Assay [30] has as its system Pseudomonas aeruginosa ATCC 15442.

Turning to `CC[C@H](C)[C@H](NC(=O)[C@H](CCC(=O)O)NC(=O)[C@H](CC(N)=O)NC(=O)[C@H](CC(C)C)NC(=O)[C@H](C)NC(=O)[C@H](C)NC(=O)[C@H](CCCCN)NC(=O)CNC(=O)[C@H](C)NC(=O)[C@H](CC(N)=O)NC(=O)[C@H](CCCCN)NC(=O)[C@H](CC(C)C)NC(=O)[C@@H](NC(=O)[C@H](CCC(=O)O)NC(=O)[C@H](CCCCN)NC(=O)[C@H](Cc1c[nH]c2ccccc12)NC(=O)[C@H](CC(C)C)NC(=O)[C@H](C)N)C(C)C)C(=O)N[C@@H](CC(N)=O)C(=O)N[C@@H](CC(N)=O)C(=O)N[C@@H](CC(C)C)C(=O)N[C@H](C(=O)N[C@@H](CCC(N)=O)C(N)=O)C(C)C` [ALWKEVLKNAGKAALNEINNLVQ], the MIC (usually the lowest concentration that inhibits growth of the organism) is no less than 32 µM in assay [1]; 64 µM (≈ 162 µg/mL) in assay [2]; 16 µM (≈ 40.6 µg/mL) in [3]; 16 µM (≈ 40.6 µg/mL) in [4]; no less than 512 µM in assay [5]; no less than 32 µM in assay [6].

The compound `C[C@H](N)C(=O)N[C@@H](CCCN=C(N)N)C(=O)N[C@@H](C)C(=O)N[C@@H](CCCN=C(N)N)C(N)=O` [ARAR] yielded an MIC in [7] of no less than 100 µM.

For `CC(C)C[C@H](NC(=O)[C@H](CC(C)C)NC(=O)[C@H](CCCCN)NC(=O)[C@H](CO)NC(=O)[C@H](CC(C)C)NC(=O)[C@H](C)NC(=O)[C@H](CCCCN)NC(=O)[C@H](Cc1ccccc1)NC(=O)[C@H](C)NC(=O)[C@H](C)NC(=O)CNC(=O)[C@H](C)NC(=O)[C@@H](N)Cc1ccccc1)C(=O)O` [FAGAAFKALSKLL], the MIC in assay [8] was no less than 299 µM; in assay [9], greater than 299 µM; in [10] it was 209 µM (≈ 280 µg/mL); in assay [11], no less than 112 µM.

Compound `CC[C@H](C)[C@H](NC(=O)[C@H](CCCN=C(N)N)NC(=O)[C@H](C)NC(=O)[C@H](Cc1ccccc1)NC(=O)[C@H](Cc1ccccc1)NC(=O)[C@H](CCCCN)NC(=O)[C@H](CCCN=C(N)N)NC(=O)[C@H](CC(C)C)NC(=O)[C@@H](NC(=O)[C@H](CCCCN)NC(=O)[C@@H]1CCCN1C(=O)[C@H](CC(C)C)NC(=O)[C@@H](N)Cc1ccccc1)[C@@H](C)O)C(=O)N[C@@H](CCCN=C(N)N)C(=O)NCC(=O)NCC(=O)N[C@@H](CCCN=C(N)N)C(=O)N[C@@H](C)C(=O)N[C@@H](C)C(=O)N[C@H](C(=O)N[C@@H](CC(C)C)C(=O)N[C@@H](CC(N)=O)C(=O)N[C@@H](C)C(=O)O)C(C)C` [FLPKTLRKFFARIRGGRAAVLNA] gave an MIC in assay [12] of 8.48 µM (≈ 22.1 µg/mL). This lies in the single-digit micromolar range.

Consider `NCCCC[C@H](NC(=O)[C@H](Cc1cnc[nH]1)NC(=O)CN)C(=O)O` [GHK], for which the MIC in [13] is no less than 100 µM; in [7], no less than 100 µM; in [14], no less than 100 µM; in assay [15], greater than 100 µM.

In assay [16], `CC(C)C[C@H](NC(=O)[C@H](Cc1c[nH]c2ccccc12)NC(=O)[C@H](CCCCN)NC(=O)[C@H](CC(C)C)NC(=O)[C@H](CC(C)C)NC(=O)[C@H](CCCCN)NC(=O)[C@@H](N)CCCCN)C(N)=O` [KKLLKWL] had an MIC of no less than 100 µM.

Regarding `CC(C)C[C@H](NC(=O)[C@H](CC(C)C)NC(=O)[C@@H](NC(=O)[C@@H](N)CCCCN)[C@@H](C)O)C(=O)N[C@@H](CCCCN)C(=O)N[C@@H](CCCCN)C(=O)N[C@H](C(=O)N[C@@H](CC(C)C)C(=O)N[C@@H](CCCCN)C(=O)N[C@@H](C)C(=O)N[C@@H](C)C(=O)N[C@@H](C)C(N)=O)C(C)C` [KTLLKKVLKAAA], the MIC in assay [17] was greater than 50 µM; in assay [18] it was no less than 50 µM; in assay [19], no less than 50 µM; in assay [15], greater than 50 µM.

In the case of `CC[C@H](C)[C@H](NC(=O)[C@@H](NC(=O)[C@H](C)NC(=O)[C@@H]1CCCN1C(=O)[C@H](Cc1ccccc1)NC(=O)[C@@H](NC(=O)[C@H](CCCCN)NC(=O)[C@H](CO)NC(=O)[C@H](C)NC(=O)[C@@H](NC(=O)[C@H](CCCN=C(N)N)NC(=O)[C@H](Cc1ccccc1)NC(=O)[C@H](CC(C)C)NC(=O)[C@H](C)NC(=O)CNC(=O)[C@@H](N)CC(C)C)C(C)C)C(C)C)C(C)C)C(=O)N[C@@H](CO)C(=O)N[C@@H](CCSC)C(=O)N[C@H](C(=O)N[C@@H](CCCCN)C(=O)O)C(C)C` [LGALFRVASKVFPAVISMVK], the MIC worked out at 30 µM (≈ 64 µg/mL) in assay [20], 120 µM (≈ 256 µg/mL) in assay [21], 30 µM (≈ 64 µg/mL) in assay [22] and 30 µM (≈ 64 µg/mL) in assay [23].

The compound `CC(C)C[C@H](NC(=O)[C@H](Cc1c[nH]c2ccccc12)NC(=O)[C@H](CCCN=C(N)N)NC(=O)[C@H](CC(C)C)NC(=O)[C@H](Cc1c[nH]c2ccccc12)NC(=O)[C@H](CC(C)C)NC(=O)[C@H](CC(C)C)NC(=O)[C@H](Cc1c[nH]c2ccccc12)NC(=O)[C@@H](N)CC(C)C)C(N)=O` [LWLLWLRWL] gave an MIC in [16] of 3.12 µM (≈ 4.06 µg/mL).

In the case of `CC(C)C[C@H](NC(=O)[C@H](CCCN=C(N)N)NC(=O)[C@H](CO)NC(=O)[C@H](Cc1cnc[nH]1)NC(=O)[C@@H](N)CCCN=C(N)N)C(=O)N[C@@H](CCC(N)=O)C(=O)N[C@@H](CCCN=C(N)N)C(=O)N[C@@H](CCC(=O)O)C(=O)N1CCC[C@H]1C(=O)N[C@@H](CCC(N)=O)C(=O)N[C@H](C(=O)N[C@@H](CCC(N)=O)C(=O)N[C@@H](Cc1c[nH]c2ccccc12)C(=O)N[C@@H](CC(C)C)C(=O)N[C@@H](CCC(=O)O)C(=O)N[C@@H](CCC(N)=O)C(=O)N[C@@H](CCC(N)=O)C(=O)N[C@H](C(=O)N[C@@H](C)C(=O)N[C@@H](CCCCN)C(=O)N[C@@H](CCCN=C(N)N)C(=O)N[C@@H](CCCN=C(N)N)C(=O)N[C@H](C(=O)N[C@@H](CCCCN)C(=O)N[C@@H](CCCN=C(N)N)C(=O)O)[C@@H](C)O)C(C)C)C(C)C` [RHSRLQREPQVQWLEQQVAKRRTKR], the MIC in assay [24] was no less than 100 µM; in assay [25], greater than 100 µM; in assay [26] it was no less than 100 µM; in [17] it was greater than 100 µM; in [2], greater than 100 µM; in assay [27], greater than 100 µM. Also, the results for the MIC in [21] and in assay [28] were greater than 100 µM and no less than 100 µM, respectively.

Consider `C[C@@H](O)[C@H](N)C(=O)N[C@@H](CCCN=C(N)N)C(=O)N[C@H](C(=O)N[C@@H](CCCN=C(N)N)C(N)=O)[C@@H](C)O` [TRTR], for which the MIC in assay [7] is no less than 100 µM.

Take `CC[C@H](C)[C@H](NC(=O)[C@H](C)NC(=O)[C@@H](N)C(C)C)C(=O)N[C@@H](C)C(=O)N[C@@H](CC(C)C)C(=O)N[C@@H](CCCCN)C(=O)N[C@@H](C)C(=O)N[C@@H](C)C(=O)N[C@@H](C)C(=O)N[C@@H](Cc1ccc(O)cc1)C(=O)N[C@@H](Cc1cnc[nH]1)C(=O)N[C@H](C(=O)N[C@@H](Cc1cnc[nH]1)C(=O)N[C@@H](CCCCN)C(=O)N[C@@H](CCC(=O)O)C(=O)O)[C@@H](C)O` [VAIALKAAAYHTHKE]: the MIC in assay [25] is 78.9 µM (≈ 128 µg/mL); in [29], 39.4 µM (≈ 64 µg/mL); in assay [30], no less than 78.9 µM.

`CC(=O)N[C@@H](Cc1c[nH]c2ccccc12)C(=O)N[C@@H](Cc1c[nH]c2ccccc12)C(=O)N[C@@H](CC(C)C)C(=O)N[C@@H](Cc1c[nH]c2ccccc12)C(=O)N[C@@H](Cc1c[nH]c2ccccc12)C(=O)N[C@@H](CC(C)C)C(=O)N[C@@H](CCCN=C(N)N)C(=O)N[C@@H](Cc1c[nH]c2ccccc12)C(=O)N[C@@H](CC(C)C)C(N)=O` [WWLWWLRWL]: the MIC in assay [16] was found to be 25 µM (≈ 37.1 µg/mL).

(Values after DBAASP.)
